The record followed here is patent publication US20120238549A1, “Nuclear Hormone Receptor Modulators” (ABBOTT LABORATORIES, priority 2011, published 2012).

Broadly, the IC50 is the concentration that inhibits the measured activity by half.

Bounds are passed on as bounds.

The assay concerns the target T1, Glucocorticoid Receptor (GR) (Homo sapiens, UniProt P04150).
T1 construct: purchased Invitrogen P2893
T1 sequence (P04150 1-777): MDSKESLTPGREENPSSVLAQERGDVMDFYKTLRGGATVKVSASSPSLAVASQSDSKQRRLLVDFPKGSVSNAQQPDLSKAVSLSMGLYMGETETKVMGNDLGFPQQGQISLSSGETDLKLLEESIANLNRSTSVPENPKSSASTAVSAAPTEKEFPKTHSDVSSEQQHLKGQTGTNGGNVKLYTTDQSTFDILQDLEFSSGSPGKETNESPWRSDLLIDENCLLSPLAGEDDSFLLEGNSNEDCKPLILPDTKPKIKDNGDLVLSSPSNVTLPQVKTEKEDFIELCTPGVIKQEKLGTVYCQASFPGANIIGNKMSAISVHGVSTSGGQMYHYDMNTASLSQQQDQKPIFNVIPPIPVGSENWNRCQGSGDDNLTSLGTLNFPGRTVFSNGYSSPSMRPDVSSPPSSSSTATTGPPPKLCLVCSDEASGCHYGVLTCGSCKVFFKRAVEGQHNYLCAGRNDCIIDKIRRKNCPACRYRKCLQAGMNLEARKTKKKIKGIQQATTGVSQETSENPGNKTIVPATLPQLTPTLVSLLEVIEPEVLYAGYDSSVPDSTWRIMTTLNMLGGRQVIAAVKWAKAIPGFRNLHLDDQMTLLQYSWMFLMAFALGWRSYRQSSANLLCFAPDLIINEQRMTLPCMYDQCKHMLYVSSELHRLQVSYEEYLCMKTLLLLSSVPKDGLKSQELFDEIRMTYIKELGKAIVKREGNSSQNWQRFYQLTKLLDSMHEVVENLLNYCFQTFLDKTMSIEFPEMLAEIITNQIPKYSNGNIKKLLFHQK
Put plainly: GR Florescence Polarization Assay (PolarScreen Glucocorticoid Receptor Competitor Assay, Red). Conditions: Fluorescense polarization binding ranges; competition with fluorescent glucocorticoid, incubated overnight at 4° C. In short, it runs like this: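 Competitive fluorescence polarization using fluorescent glucocorticoid tracer and human GR in kit buffer. Compounds serially diluted 1:4 in DMSO, incubated with tracer and GR overnight at 4 °C before polarization read.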
Take `CCC[C@@]1(O)CC[C@@]2(CC)c3ccc(C(=O)Nc4cccnc4C)cc3OCC[C@H]2C1` (racemic) [Example 119, (7aS,9R,11aR)-11a-Ethyl-9-hydroxy-N-(2-methylpyridin-3-yl)-9-propyl-6,7,7a,8,9,10,11,11a-octahydrodibenzo[b,d]oxepine-3-carboxamide; compound with (7aR,9S,11aS)-11a-ethyl-9-hydroxy-N-(2-methylpyridin-3-yl)-9-propyl-6,7,7a,8,9,10,11,11a-octahydrodibenzo[b,d]oxepine-3-carboxamide]: the half-maximal inhibitory concentration (IC50) was under 0.1 µM.
In turn, `Cc1ncccc1NC(=O)c1ccc2c(c1)CCC[C@H]1C[C@@](O)(COC3COC3)CC[C@@]21Cc1ccccc1` (racemic) [Example 96] came in with an IC50 of under 0.1 µM.
Regarding `CCC[C@@]1(O)CC[C@@]2(CC)c3ccc(C(=O)Nc4cccnc4C)cc3C=CC[C@H]2C1` (single isomer, unassigned) [Example 129], the IC50 is 0.1 to 1 µM.
Next, `CC[C@@]12CC[C@](O)(CC#N)C[C@@H]1CCCc1cc(C(=O)Nc3cccnc3C)ccc12` (racemic) [Example 64, (7aS,9R,11aR)-9-Cyanomethyl-11a-ethyl-9-hydroxy-6,7,7a,8,9,10,11,11a-octahydro-5H-dibenzo[a,c]cycloheptene-3-carboxylic acid (2-methyl-pyridin-3-yl)-amide; compound with (7aR,9S,11aS)-9-cyanomethyl-11a-ethyl-9-hydroxy-6,7,7a,8,9,10,11,11a-octahydro-5H-dibenzo[a,c]cyclo heptene-3-carboxylic acid (2-methyl-pyridin-3-yl)-amide]: 0.1 to 1 µM; `CC[C@@]1(O)CC[C@@]2(Cc3ccccc3)c3ccc(C(=O)Nc4cccnc4C)cc3C(=O)N(C)C[C@@H]2C1` [Example 113, (3R,4aR,11bS)-11b-Benzyl-3-ethyl-3-hydroxy-6-methyl-N-(2-methylpyridin-3-yl)-7-oxo-2,3,4,4a,5,6,7,11b-octahydro-1H-dibenzo[c,e]azepine-9-carboxamide]: 1 to 10 µM; `CC[C@@]12CC[C@](O)(c3ccccc3)C[C@@H]1CCOc1cc(C(=O)Nc3cccnc3C)ccc12` (racemic) [Example 134, (7aS,9R,11aR)-11a-Ethyl-9-hydroxy-N-(2-methylpyridin-3-yl)-9-phenyl-6,7,7a,8,9,10,11,11a-octahydrodibenzo[b,d]oxepine-3-carboxamide; compound with (7aR,9S,11aS)-11a-ethyl-9-hydroxy-N-(2-methylpyridin-3-yl)-9-phenyl-6,7,7a,8,9,10,11,11a-octahydrodibenzo[b,d]oxepine-3-carboxamide]: under 0.1 µM.
`Cc1ncccc1NC(=O)c1ccc2c(c1)CCCC1CC(O)(COC(C)C(F)(F)F)CCC21Cc1ccccc1` (mixture of isomers) [Example 100]: the half-inhibitory concentration (IC50) is under 0.1 µM.
On to `CCC[C@@]12CC[C@](O)(CC)C[C@@H]1CCCc1cc(C(=O)Nc3cccnc3C)ccc12.CCC[C@]12CC[C@@](O)(CC)C[C@H]1CCCc1cc(C(=O)Nc3cccnc3C)ccc12` [Example 26, (7aR,9S,11aS)-9-Ethyl-9-hydroxy-11a-propyl-6,7,7a,8,9,10,11,11a-octahydro-5H-dibenzo[a,c]cycloheptene-3-carboxylic acid (2-methyl-pyridin-3-yl)-amide; compound with (7aS,9R,11aR)-9-ethyl-9-hydroxy-11a-propyl-6,7,7a,8,9,10,11,11a-octahydro-5H-dibenzo[a,c]cycloheptene-3-carboxylic acid (2-methyl-pyridin-3-yl)-amide], for which the concentration for half-maximal inhibition (IC50) was under 0.1 µM.
For the compound `CCC[C@@]1(O)CC[C@@]2(CC)c3ccc(-c4nc5ccccc5[nH]4)cc3CCC[C@H]2C1` (racemic) [Example 146, (3R,4aS,11bR)-9-(1H-Benzoimidazol-2-yl)-11b-ethyl-3-propyl-2,3,4,4a,5,6,7,11b-octahydro-1H-dibenzo[a,c]cyclohepten-3-ol; compound with (3S,4aR,11bS)-9-(1H-benzoimidazol-2-yl)-11b-ethyl-3-propyl-2,3,4,4a,5,6,7,11b-octahydro-1H-dibenzo[a,c]cyclohepten-3-ol], the IC50 lay within 0.1 to 1 µM.
With `Cc1ncccc1NC(=O)c1ccc2c(c1)CCC[C@H]1C[C@](O)(C(F)(F)F)CC[C@]21Cc1ccccc1` [Example 107, (7aS,9S,11aR)-11a-Benzyl-9-hydroxy-9-trifluoromethyl-6,7,7a,8,9,10,11,11a-octahydro-5H-dibenzo[a,c]cycloheptene-3-carboxylic acid (2-methyl-pyridin-3-yl)-amide], the IC50 is 0.1 to 1 µM.
`CC[C@@]1(O)CC[C@@]2(Cc3ccccc3)c3ccc(C(=O)N(C)c4cccnc4C)cc3CCC[C@H]2C1` [Example 89, (7aS,9R,11aS)-11a-Benzyl-9-ethyl-9-hydroxy-6,7,7a,8,9,10,11,11a-octahydro-5H-dibenzo[a,c]cycloheptene-3-carboxylic acid methyl-(2-methyl-pyridin-3-yl)-amide] had an IC50 of 0.1 to 1 µM.
The figure for `Cc1ncccc1NC(=O)c1ccc2c(c1)CCC[C@H]1C[C@@H](O)CC[C@@]21Cc1ccccc1` (racemic) [Example 16, (7aS,9S,11aS)-11a-Benzyl-9-hydroxy-6,7,7a,8,9,10,11,11a-octahydro-5H-dibenzo[a,c]cycloheptene-3-carboxylic acid (2-methyl-pyridin-3-yl)-amide; compound with (7aR,9R,11aR)-11a-benzyl-9-hydroxy-6,7,7a,8,9,10,11,11a-octahydro-5H-dibenzo[a,c]cycloheptene-3-carboxylic acid (2-methyl-pyridin-3-yl)-amide] is 0.1 to 1 µM; for `Cc1ncccc1NC(=O)c1ccc2c(c1)CCC[C@H]1C[C@@](O)(CC#N)CC[C@@]21Cc1ccccc1` [Example 66] it is under 0.1 µM.
Compound `Cc1ncccc1NC(=O)c1ccc2c(c1)CCC[C@H]1C[C@@](O)(COCCS(C)(=O)=O)CC[C@@]21Cc1ccccc1` (racemic) [Example 105] registered a half-inhibitory concentration (IC50) of under 0.1 µM.
The figure for `CC[C@@]1(O)CC[C@@]2(Cc3ccccc3)c3cc(C(=O)Nc4cccnc4C)cn3CCC[C@H]2C1` (racemic) [Example 144, (7aS,9R,11aS)-11a-Benzyl-9-ethyl-9-hydroxy-N-(2-methylpyridin-3-yl)-6,7,7a,8,9,10,11,11a-octahydro-5H-benzo[c]pyrrolo[1,2-a]azepine-2-carboxamide; compound with (7aR,9S,11aR)-11a-benzyl-9-ethyl-9-hydroxy-N-(2-methylpyridin-3-yl)-6,7,7a,8,9,10,11,11a-octahydro-5H-benzo[c]pyrrolo[1,2-a]azepine-2-carboxamide] is 1 to 10 µM; for `CC[C@@]1(O)CC[C@@]2(Cc3ccccc3)c3ccc(C(=O)Nc4cccnc4C)cc3COC[C@H]2C1` [Example 111, (7aS,9R,11aS)-11a-Benzyl-9-ethyl-9-hydroxy-N-(2-methylpyridin-3-yl)-5,7,7a,8,9,10,11,11a-octahydrodibenzo[c,e]oxepine-3-carboxamide] it is under 0.1 µM.
Regarding `CC[C@@]1(O)CC[C@@]2(Cc3ccccc3)c3ccc(-c4nc5ccccc5[nH]4)cc3CCC[C@H]2C1` [Example 127, (3R,4aS,11bS)-9-(1H-benzoimidazol-2-yl)-11b-benzyl-3-ethyl-2,3,4,4a,5,6,7,11b-octahydro-1H-dibenzo[a,c]cyclohepten-3-ol], the IC50 is 0.1 to 1 µM.
Next, `Cc1ncccc1NC(=O)c1ccc2c(c1)CCC[C@H]1C[C@@](O)(COC3CCOCC3)CC[C@@]21Cc1ccccc1` (racemic) [Example 102]: under 0.1 µM.
Next, `CC[C@@]1(O)CC[C@@]2(Cc3ccccc3)c3ccc(C(=O)Nc4ncccc4C)cc3CCC[C@H]2C1` [Example 73]: under 0.1 µM.
For `Cc1ncccc1NC(=O)c1ccc2c(c1)CCC[C@@H]1CC(=O)CC[C@@]21Cc1ccccc1` (racemic) [Example 8, (7aR,11aS)-11a-Benzyl-9-oxo-6,7,7a,8,9,10,11,11a-octahydro-5H-dibenzo[a,c]cycloheptene-3-carboxylic acid (2-methyl-pyridin-3-yl)-amide; compound with (7aS,11aR)-11a-benzyl-9-oxo-6,7,7a,8,9,10,11,11a-octahydro-5H-dibenzo[a,c]cycloheptene-3-carboxylic acid (2-methyl-pyridin-3-yl)-amide], the IC50 is under 0.1 µM.
`Cc1ncccc1NC(=O)c1ccc2c(c1)C(=O)CC[C@@H]1C[C@@](O)(C(F)(F)F)CC[C@@]21Cc1ccccc1` [Example 118, (7aR,9R,11aS)-11a-Benzyl-9-hydroxy-5-oxo-9-trifluoromethyl-6,7,7a,8,9,10,11,11a-octahydro-5H-dibenzo[a,c]cycloheptene-3-carboxylic acid (2-methyl-pyridin-3-yl)-amide] came in with a half-maximal inhibitory concentration (IC50) of under 0.1 µM.
In turn, `CC[C@@]1(O)CC[C@@]2(Cc3ccccc3)c3ccc(C(=O)Nc4nnnn4C)cc3CCC[C@H]2C1` [Example 78] had an IC50 of under 0.1 µM.
